Measured values taken from patent US10329270B2, “Heteroaryl compounds as BTK inhibitors and uses thereof” (Merck Patent GmbH, priority 2013, dated 2019).

Experiments:
full-length human BTK = molecular target: T1, full-length human BTK (Homo sapiens, UniProt Q06187); test: Assay A: BTK IC50 Enzyme Assay (microfluidic off-chip mobility shift kinase assay); assay type: biochemical; conditions: full-length human BTK, kinKDR peptide substrate, incubated 90 min at 27 C; read-out: Assay A (Time Dependent BTK Enzyme Assay IC50)
T1 construct: 2.5× stocks of full-length human BTK (08-080); purchased CarnaBio USA, Inc., Natick, Mass; 08-080
Summary of the method: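 Off-chip microfluidic mobility shift assay with full-length human BTK; phosphorylated and unphosphorylated peptide substrate were separated by charge/mass on a LabChip 3000.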

PBMC = test: Assay B: Time Dependent PMBC IC50 Assay; assay type: cell-based
Method: Assay B: Time Dependent PMBC IC50 Assay
Compounds described by embodiments of the present invention were assayed using a time dependent PMBC assay. The data from the same is recorded in Table 2 within the column labeled: “Time Dependent PBMC Assay IC50.” These IC50 values are reported in ranges wherein: I<1 uM and II>1 uM.

T1 sequence (Q06187 whole entry): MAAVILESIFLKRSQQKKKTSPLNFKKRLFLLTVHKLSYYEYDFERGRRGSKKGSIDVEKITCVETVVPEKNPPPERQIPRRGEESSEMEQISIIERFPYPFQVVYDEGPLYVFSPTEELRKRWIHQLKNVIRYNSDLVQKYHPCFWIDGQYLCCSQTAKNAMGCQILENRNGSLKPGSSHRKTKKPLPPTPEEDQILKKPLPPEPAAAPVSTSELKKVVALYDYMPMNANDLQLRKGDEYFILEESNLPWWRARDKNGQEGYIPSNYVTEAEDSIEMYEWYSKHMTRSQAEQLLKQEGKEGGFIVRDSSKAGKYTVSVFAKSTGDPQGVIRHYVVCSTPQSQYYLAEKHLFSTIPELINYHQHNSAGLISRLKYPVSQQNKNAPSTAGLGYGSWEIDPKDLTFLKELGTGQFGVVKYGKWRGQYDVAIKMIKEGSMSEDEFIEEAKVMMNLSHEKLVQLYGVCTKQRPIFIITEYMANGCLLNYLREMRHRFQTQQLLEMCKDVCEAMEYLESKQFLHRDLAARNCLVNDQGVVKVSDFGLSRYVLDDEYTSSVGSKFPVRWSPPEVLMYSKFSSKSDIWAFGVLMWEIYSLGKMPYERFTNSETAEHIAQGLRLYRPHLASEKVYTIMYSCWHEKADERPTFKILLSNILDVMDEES

SMILES	IC50 (full-length human BTK)	IC50 (PBMC)
C=CC(=O)N1CCC(c2ccc(C(N)=O)c(Nc3ccc(C(=O)N4CCCC(NC(=O)CCOCCOCCOCCOCCNC(=O)CCCC[C@@H]5SCC6NC(=O)NC65)C4)cc3)n2)CC1 (stereo partly drawn) [Compound 191, 6-(1-acryloylpiperidin-4-yl)-2-((4-(3-(17-oxo-21-((4S)-2-oxohexahydro-1H-thieno[3,4-d]imidazol-4-yl)-4,7,10,13-tetraoxa-16-azahenicosanamido)piperidine-1-carbonyl)phenyl)amino)nicotinamide]	< 100 nM	> 5000 nM
N#CN[C@@H]1CCCN(c2ccc(C(N)=O)c(Nc3ccc(C(=O)N4CCOCC4)cc3)n2)C1 [Compound 227, (R)-3-Cyanoamino-6′-[4-(morpholine-4-carbonyl)-phenylamino]-3,4,5,6-tetrahydro-2H-[1,2′]bipyridinyl-5′-carboxylic acid amide]	100 to 1000 nM	> 5000 nM
C=CC(=O)N[C@@H]1CN(c2ccc(C(N)=O)c(Nc3ccc(CCN4CCCC4)cc3)n2)CC12CC2 [Compound 7, 6-((S)-7-Acryloylamino-5-aza-spiro[2.4]hept-5-yl)-2-[4-(2-pyrrolidin-1-yl-ethyl)-phenylamino]-nicotinamide]	< 100 nM	< 100 nM
C=CC(=O)N[C@H]1CCN(c2ccc(C(N)=O)c(Nc3ccc(C4CCN(C)CC4)cc3)n2)C1 [Compound 14, 6-((S)-3-Acryloylamino-pyrrolidin-1-yl)-2-[4-(1-methyl-piperidin-4-yl)-phenylamino]-nicotinamide]	< 100 nM	< 100 nM
C=CC(=O)N[C@H]1CCN(c2ccc(C(N)=O)c(Nc3ccc(CCN4CCCC4)cc3)n2)C1 [Compound 16, 6-((S)-3-Acryloylamino-pyrrolidin-1-yl)-2-[4-(2-pyrrolidin-1-yl-ethyl)-phenylamino]-nicotinamide]	< 100 nM	< 100 nM
C=CC(=O)N1CC[C@@H](Nc2ccc(C(N)=O)c(Oc3ccc(Oc4ccccc4)cc3)n2)C1 [Compound 72, 6-((R)-1-Acryloyl-pyrrolidin-3-ylamino)-2-(4-phenoxy-phenoxy)-nicotinamide]		< 100 nM
C=CC(=O)Nc1cncc(-c2ccc(C(N)=O)c(Oc3ccc(Oc4ccccc4)cc3)n2)c1 [Compound 75, 5′-acrylamido-6-(4-phenoxyphenoxy)-[2,3′-bipyridine]-5-carboxamide]	< 100 nM	< 100 nM
C=CC(=O)N1CCC(c2ccc(C(N)=O)c(Nc3ccc(C(=O)N4CCCCC4)cc3)n2)CC1 [Compound 22, 1′-Acryloyl-6-[4-(piperidine-1-carbonyl)-phenylamino]-1′,2′,3′,4′,5′,6′-hexahydro-[2,4′]bipyridinyl-5-carboxylic acid amide]	< 100 nM	< 100 nM
C=CC(=O)N1C2CCC1CN(c1ccc(C(N)=O)c(Oc3ccc(Oc4ccccc4)cc3)n1)C2 [Compound 68, 6-(8-Acryloyl-3,8-diaza-bicyclo[3.2.1]oct-3-yl)-2-(4-phenoxy-phenoxy)-nicotinamide]		< 100 nM
N#CN1CCC[C@H](c2cnc(Oc3ccc(Oc4ccccc4)cc3)c(C(N)=O)c2)C1 [Compound 241, (R)-5-(1-cyanopiperidin-3-yl)-2-(4-phenoxyphenoxy)nicotinamide]	< 100 nM	100 to 1000 nM
C=CC(=O)N[C@H]1CCN(c2ccc(C(N)=O)c(Nc3ccc(N4CCOCC4)nc3)n2)C1 [Compound 38, 6-((S)-3-Acryloylamino-pyrrolidin-1-yl)-2-(6-morpholin-4-yl-pyridin-3-ylamino)-nicotinamide]	< 100 nM	100 to 1000 nM
C=CC(=O)N1CCC(c2ccc(C(N)=O)c(Nc3ccc(CCN4CCCC4)cc3)n2)CC1 [Compound 18, 1′-Acryloyl-6-[4-(2-pyrrolidin-1-yl-ethyl)-phenylamino]-1′,2′,3′,4′,5′,6′-hexahydro-[2,4′]bipyridinyl-5-carboxylic acid amide]	< 100 nM	< 100 nM
C=CC(=O)N(C)[C@H]1CCN(c2ccc(C(N)=O)c(Nc3ccc(CCN4CCCC4)cc3)n2)C1 [Compound 30, 6-[(S)-3-(Acryloyl-methyl-amino)-pyrrolidin-1-yl]-2-[4-(2-pyrrolidin-1-yl-ethyl)-phenylamino]-nicotinamide]	< 100 nM	< 100 nM
C=CC(=O)N[C@H]1CCN(c2nc(Nc3ccc(N4CC(C)OC(C)C4)cc3)c(C(N)=O)cc2F)C1 (stereo partly drawn) [Compound 188, 6-((S)-3-Acryloylamino-pyrrolidin-1-yl)-2-[4-(2,6-dimethyl-morpholin-4-yl)-phenylamino]-5-fluoro-nicotinamide]	< 100 nM	< 100 nM
C=CC(=O)N1CCN(c2ncc(C(N)=O)c(Oc3ccc(Oc4ccccc4)cc3)n2)CC1 [Compound 173, 2-(4-Acryloyl-piperazin-1-yl)-4-(4-phenoxy-phenoxy)-pyrimidine-5-carboxylic acid amide]	< 100 nM	< 100 nM
C=CC(=O)N1CCC(c2ccc(C(N)=O)c(Nc3ccc(C(=O)N4CCN(C(=O)CCCCNC(=O)CCOCCOCCOCCOCCNC(=O)CCCCC5SCC6NC(=O)NC65)CC4)cc3)n2)CC1 (stereo not drawn) [Compound 177]	< 100 nM	> 5000 nM
C=CC(=O)N1CCC=C(c2ccc(C(N)=O)c(Nc3ccc(CCN4CCCC4)cc3)n2)C1 [Compound 44, 1′-Acryloyl-6-[4-(2-pyrrolidin-1-yl-ethyl)-phenylamino]-1′,2′,5′,6′-tetrahydro-[2,3′]bipyridinyl-5-carboxylic acid amide]	< 100 nM	100 to 1000 nM

SMILES	IC50 (full-length human BTK)	IC50 (PBMC)
N#CN1CCCC(c2cnc(Oc3ccc(Oc4ccccc4)cc3)c(C(N)=O)c2)C1 (stereo not drawn) [Compound 236, 1′-Cyano-6-(4-phenoxy-phenoxy)-1′,2′,3′,4′,5′,6′-hexahydro-[3,3′]bipyridinyl-5-carboxylic acid amide]	< 100 nM	100 to 1000 nM
C=CC(=O)N1CCC(c2ccc(C(N)=O)c(Nc3ccc(OC4CCN(C)CC4)cc3)n2)CC1 [Compound 10, 1′-Acryloyl-6-[4-(1-methyl-piperidin-4-yloxy)-phenylamino]-1′,2′,3′,4′,5′,6′-hexahydro-[2,4′]bipyridinyl-5-carboxylic acid amide]	< 100 nM	< 100 nM
C=CC(=O)N1CCC(c2cnc(C(N)=O)c(NC(C)=O)c2)CC1 [Compound 134]	< 100 nM	100 to 1000 nM
C=CC(=O)N1C[C@@H]2C[C@H]1CN2c1ccc(C(N)=O)c(Oc2ccc(Oc3ccccc3)cc2)n1 [Compound 23, 6-((1S,4S)-5-acryloyl-2,5-diazabicyclo[2.2.1]heptan-2-yl)-2-(4-phenoxyphenoxy)nicotinamide]		< 100 nM
CN(C)C/C=C/C(=O)N[C@H]1CCN(c2ncc(C(N)=O)c(N)n2)C1 [Compound 145, 4-Amino-2-[(S)-3-((E)-4-dimethylamino-but-2-enoylamino)-pyrrolidin-1-yl]-pyrimidine-5-carboxylic acid amide]	1000 to 5000 nM	
C=CC(=O)N[C@H]1CCN(c2cc(Oc3ccc(Oc4ccccc4)cc3)c(C(N)=O)cn2)C1 [Compound 109, 6-((S)-3-Acryloylamino-pyrrolidin-1-yl)-4-(4-phenoxy-phenoxy)-nicotinamide]	< 100 nM	
C=CC(=O)N[C@H]1CCN(c2ccc(C(N)=O)c(Nc3cncc(C)c3)n2)C1 [Compound 55, 6-((S)-3-Acryloylamino-pyrrolidin-1-yl)-2-(5-methyl-pyridin-3-ylamino)-nicotinamide]	< 100 nM	
C=CC(=O)NC1CCN(c2cnc(Oc3ccc(Oc4ccccc4)cc3)c(C(N)=O)c2)C1 (stereo not drawn) [Compound 196, 5-(3-Acryloylamino-pyrrolidin-1-yl)-2-(4-phenoxy-phenoxy)-nicotinamide]	100 to 1000 nM	
C=CC(=O)Nc1cccc(-c2ccc(C(N)=O)c(Oc3ccc(Oc4ccccc4)cc3)n2)c1 [Compound 80, 6-(3-acrylamidophenyl)-2-(4-phenoxyphenoxy)nicotinamide]	< 100 nM	
C=CC(=O)N1CCC(c2ncc(C(N)=O)c(Oc3ccc(Oc4ccccc4)cc3)n2)CC1 [Compound 148, 2-(1-Acryloyl-piperidin-4-yl)-4-(4-phenoxy-phenoxy)-pyrimidine-5-carboxylic acid amide]	< 100 nM	
C=CC(=O)N[C@H]1CCN(c2ccc(C(N)=O)c(Nc3ccc(C(=O)N(C)C)cc3)n2)C1 [Compound 26, 6-((S)-3-Acryloylamino-pyrrolidin-1-yl)-2-(4-dimethylcarbamoyl-phenylamino)-nicotinamide]	< 100 nM	
C=CC(=O)N[C@@H]1CCCN(c2ccc(C(N)=O)c(Nc3ccc(CCN4CCCC4)cc3)n2)C1 [Compound 56, (R)-3-Acryloylamino-6′-[4-(2-pyrrolidin-1-yl-ethyl)-phenylamino]-3,4,5,6-tetrahydro-2H-[1,2′]bipyridinyl-5′-carboxylic acid amide]	< 100 nM	
C=CC(=O)N1C[C@@H]2C[C@H]1CN2c1ccc(C(N)=O)c(Nc2ccc(C)nc2)n1 [Compound 8]	< 100 nM	
C=CC(=O)N1CC=C(c2cncc(C(N)=O)c2Nc2ccc(C(=O)N3CCCCC3)cc2)CC1 [Compound 169, 1′-Acryloyl-4-[4-(piperidine-1-carbonyl)-phenylamino]-1′,2′,3′,6′-tetrahydro-[3,4′]bipyridinyl-5-carboxylic acid amide]	1000 to 5000 nM	
C=CC(=O)N1CCn2ncc(-c3cnc(C(N)=O)nc3)c2C1 [Compound 154]	> 5000 nM	
C=CC(=O)N1C[C@@H]2C[C@H]1CN2c1ccc(C(N)=O)c(Oc2ccc(Oc3ccc(F)cc3F)cc2)n1 [Compound 66, 6-((1S,4S)-5-Acryloyl-2,5-diaza-bicyclo[2.2.1]hept-2-yl)-2-[4-(2,4-difluoro-phenoxy)-phenoxy]-nicotinamide]	< 100 nM	
